Columns and labels:
[1] = test system: kaolin-induced rat paw edema; experiment: kaolin-induced rat paw edema assay: inhibition of paw swelling, single oral dose; format: in vivo, rat (male Holtzman); conditions: for inhibition in vivo at 25 mg/kg / % INHIBITION (Average 10 rats): 25 mg/kg p.o.; for inhibition in vivo at 100 mg/kg: 100 mg/kg p.o.; for inhibition in vivo at 50 mg/kg: 50 mg/kg p.o.; for % INHIBITION (Average 10 rats): 25 mg/kg
Experimental: In the kaolin-induced rat paw edema assay, the ability of a compound, when administered in a single oral dose, to inhibit the swelling of the rat paw injected with a standard amount (0.1 ml.) of 10% kaolin suspension in saline is measured. For comparative purposes, the activity of the compound to be tested is measured against that produced by the known anti-inflammatory agent, phenylbutazone. Male Holtzman rats are used in the assay.

cotton pellet granuloma = cotton pellet granuloma assay: granuloma tissue formed around implanted cotton pellet; format: in vivo, rat (male Holtzman); conditions: daily for seven days
Experimental: In the cotton pellet granuloma assay, the ability of a compound, when administered orally to male Holtzman rats daily for seven days, to inhibit the amount of granuloma tissue formed in or around a cotton pellet implanted beneath the skin in the thoracic region of the animal is measured and compared to water controls. The method is described by Charles A. Winter and coworkers in J. Pharmacol., 141, 369 (1963). Analysis of variance is used to determine the significance of the results.

[2] = Rattus norvegicus, po, Table I, read-out: % INHIBITION (Average 10 rats)

Cn1c(CC(=O)O)ccc1C(=O)c1ccc(N)cc1 [5-(p-aminobenzoyl)-do, 5-(p-Aminobenzoyl)-1-methylpyrrole-2-acetic acid]
inhibition in vivo at 25 mg/kg [1, 2]: 23%

COC(=O)Cc1ccc(C(=O)c2ccc(Cl)cc2)n1C [Methyl 5-(p-chlorobenzoyl)-1-methylpyrrole-2-acetate]
inhibition in vivo at 25 mg/kg [1, 2]: 38%

Cn1c(CC(=O)O)ccc1C(=O)c1ccc(Cl)cc1Cl [5-(2',4'-dichlorobenzoyl)-do, 5-(2',4'-Dichlorobenzoyl)-1-methylpyrrole-2-acetic acid]
inhibition in vivo at 25 mg/kg [1, 2]: 51%

CCNC(=O)Cc1ccc(C(=O)c2ccc(Cl)cc2)n1C [5-(p-Chlorobenzoyl)-N-ethyl-1-methylpyrrole-2-acetamide]
inhibition in vivo at 25 mg/kg [1, 2]: 25%

Cn1c(CC(=O)O)ccc1C(=O)c1ccc([N+](=O)[O-])cc1 [5-(p-nitrobenzoyl)-do, 5-(p-Nitrobenzoyl)-1-methylpyrrole-2-acetic acid]
inhibition in vivo at 100 mg/kg [1, 2]: 35%

O=C(O)Cc1ccc(C(=O)c2ccc(Cl)cc2)n1Cc1ccccc1 [1-Benzyl-5-(p-chlorobenzoyl)-pyrrole-2-acetic acid]
inhibition in vivo at 50 mg/kg [1, 2]: 23%

CCCCC1C(=O)N(c2ccccc2)N(c2ccccc2)C1=O [phenylbutazone, reference compound]
inhibition ([1]; 80 mg/kg, comparator): 30-40%
inhibition ([1]; 100 mg/kg, comparator): 50-60%

Cn1c(CC(N)=O)ccc1C(=O)c1ccc(Cl)cc1 [5-(p-Chlorobenzoyl)-1-methylpyrrole-2-acetamide]
inhibition in vivo at 50 mg/kg [1, 2]: 35%

Cn1c(CC(=O)O)ccc1C(=O)c1ccccc1 [Example 5-benzoyl-do, 5-Benzoyl-1-methylpyrrole-2-acetic acid]
inhibition in vivo at 25 mg/kg [1, 2]: 38%

Cc1cc(CC(=O)O)[nH]c1C(=O)c1ccccc1 [5-benzoyl-4-methylpyrrole-2-acetic acid, 5-Benzoyl-4-methylpyrrole-2-acetic acid]
inhibition in vivo at 100 mg/kg [1, 2]: 34%

CCN(CC)CCNC(=O)Cc1ccc(C(=O)c2ccc(Cl)cc2)n1C [5-(p-Chlorobenzoyl)-N-(2-diethylaminoethyl)-1-methylpyrrole-2-acetamide]
inhibition in vivo at 25 mg/kg [1, 2]: 27%

CCN(CC)C(=O)Cc1ccc(C(=O)c2ccc(Cl)cc2)n1C [5-(p-Chlorobenzoyl)-N,N-diethyl-1-methylpyrrole-2-acetamide]
inhibition in vivo at 25 mg/kg [1, 2]: 36%

CCOC(=O)Cc1ccc(C(=O)c2ccc(Cl)cc2)n1C [Ethyl 5-(p-chlorobenzoyl)-1-methylpyrrole-2-acetate]
inhibition in vivo at 25 mg/kg [1, 2]: 37%

Cn1c(CC(=O)O)ccc1C(=O)c1ccc(C#N)cc1 [5-(p-cyanobenzoyl)-do, 5-(p-cyanobenzoyl)-1-methylpyrrole-2-acetic acid]
inhibition in vivo at 100 mg/kg [1, 2]: 20%

Cn1c(CC(=O)O)ccc1C(=O)c1ccc(F)cc1 [5-(p-fluorobenzoyl)-do, 5-(p-fluorobenzoyl)-1-methylpyrrole-2-acetic acid]
inhibition in vivo at 25 mg/kg [1, 2]: 42%

CCn1c(CC(=O)O)ccc1C(=O)c1ccc(Cl)cc1 [5-(p-Chlorobenzoyl)-1-ethylpyrrole-2-acetic acid]
inhibition in vivo at 100 mg/kg [1, 2]: 43%

O=C(O)Cc1ccc(C(=O)c2ccc(Cl)cc2)[nH]1 [5-(p-Chlorobenzoyl)-pyrrole-2-acetic acid]
inhibition in vivo at 25 mg/kg [1, 2]: 32%

Cn1c(CC(=O)O)ccc1C(=O)c1ccc(Br)cc1 [5-(p-bromobenzoyl)-do, 5-(p-bromobenzoyl)-1-methylpyrrole-2-acetic acid]
inhibition in vivo at 25 mg/kg [1, 2]: 42%

CC(C(=O)O)c1ccc(C(=O)c2ccc(Cl)cc2)n1C (single isomer, unassigned; (-)) [(-)-5-(p-chlorobenzoyl)-α-methyl-1-methylpyrrole-2-acetic ac] [(-)-5-(p-chlorobenzoyl)-1,α-dimethylpyrrole-2-acetic acid]
% INHIBITION (Average 10 rats) ([1]; Table I): 24%

Cn1c(CC(=O)O)ccc1C(=O)c1cccc(Cl)c1 [5-(m-chlorobenzoyl)-do, 5-(m-Chlorobenzoyl)-1-methylpyrrole-2-acetic acid]
inhibition in vivo at 25 mg/kg [1, 2]: 41%

Cc1ccc(C(=O)c2ccc(CC(=O)O)n2C)s1 [1-Methyl-5-(5-methyl-2-thenoyl)-pyrrole-2-acetic acid]
inhibition in vivo at 25 mg/kg [1, 2]: 48%

Cn1c(CC(=O)O)ccc1C(=O)c1ccccc1Cl [5-(o-chlorobenzoyl)-do, 5-(o-Chlorobenzoyl)-1-methylpyrrole-2-acetic acid]
inhibition in vivo at 25 mg/kg [1, 2]: 44%

Cn1c(CC(=O)O)ccc1C(=O)c1ccc(Cl)cc1 [5-(p-Chlorobenzoyl)-1-methylpyrrole-2-acetic acid]
inhibition in vivo at 25 mg/kg [1, 2]: 47%
inhibition ([1]; single oral dose 12.5 mg/kg): about 35%
inhibition ([1]; single oral dose 25 mg/kg): about 47%
inhibition ([1]; single oral doses of 50-100 mg/kg): 45-53%

Cc1c(CC(=O)O)c[nH]c1C(=O)c1ccc(Cl)cc1 [5-(p-Chlorobenzoyl)-4-methylpyrrole-3-acetic acid]
inhibition in vivo at 50 mg/kg [1, 2]: 43%

Cc1cc(CC(=O)O)n(C)c1C(=O)c1ccc(Cl)cc1 [5-(p-chlorobenzoyl)-1,4-dimethylpyrrole-2-acetic acid]
inhibition ([1]; dose of 2.5 mg/kg): 51%

Cc1ccccc1C(=O)c1ccc(CC(=O)O)n1C [5-(o-methylbenzoyl)-do, 1-Methyl-5-(o-toluoyl)-pyrrole-2-acetic acid]
inhibition in vivo at 12.5 mg/kg ([1]; Rattus norvegicus, po, Table I, 12.5 mg/kg p.o., read-out: % INHIBITION (Average 10 rats)): 34%

Cn1c(CC(=O)O)ccc1C(=O)c1ccc(C(F)(F)F)cc1 [5-(p-trifluoromethylbenzoyl)-do, 1-methyl-5-(p-trifluoromethylbenzoyl)-pyrrole-2-acetic acid]
inhibition in vivo at 25 mg/kg [1, 2]: 60%

CCc1cc(CC(=O)O)n(C)c1C(=O)c1ccc(Cl)cc1 [5-(p-Chlorobenzoyl)-4-ethyl-1-methylpyrrole-2-acetic acid]
inhibition ([1]; 3.0 mg/kg): 29%
inhibition ([1]; 9.0 mg/kg): 47%

Cn1c(CCC(=O)O)ccc1C(=O)c1ccc(Cl)cc1 [5-(p-Chlorobenzoyl)-1-methylpyrrole-2-propionic acid]
inhibition in vivo at 25 mg/kg [1, 2]: 63%

Cc1cc(C(C)C(=O)O)n(C)c1C(=O)c1ccc(Cl)cc1 (stereo not drawn) [5-(p-Chlorobenzoyl)-1,4,α-trimethylpyrrole-2-acetic acid]
inhibition ([1]; 3.0 mg/kg): 37%
inhibition ([1]; 9.0 mg/kg): 53%

CC(C(=O)O)c1ccc(C(=O)c2ccc(Cl)cc2)n1C (racemic) [5-(p-chlorobenzoyl)-α-methyl-1-methylpyrrole-2-acetic acid]
inhibition in vivo at 50 mg/kg [1, 2]: 56%

Cn1c(CC(=O)O)ccc1C(=O)c1cccs1 [5-(2-thenoyl)-do, 1-Methyl-5-(2-thenoyl)-pyrrole-2-acetic acid]
inhibition in vivo at 25 mg/kg [1, 2]: 63%

Cn1c(CC(=O)NO)ccc1C(=O)c1ccc(Cl)cc1 [5-(p-Chlorobenzoyl)-1-methylpyrrole-2-acetohydroxamic acid]
inhibition in vivo at 25 mg/kg [1, 2]: 33%

Cc1ccc(C(=O)c2ccc(CC(=O)O)n2C)cc1 [5-(p-methylbenzoyl)-do, 5-(p-Toluoyl)-1-methylpyrrole-2-acetic acid]
inhibition in vivo at 25 mg/kg [1, 2]: 44%

COc1ccc(C(=O)c2ccc(CC(=O)O)n2C)cc1 [5-(p-methoxybenzoyl)-do, 5-(p-Anisoyl)-1-methylpyrrole-2-acetic acid]
inhibition in vivo at 25 mg/kg [1, 2]: 42%
granuloma weight (cotton pellet granuloma; 25 mg/kg orally, water controls 110 mg): about 71 mg

Cn1c(CC#N)ccc1C(=O)c1ccc(Cl)cc1 [5-(p-Chlorobenzoyl)-1-methylpyrrole-2-acetonitrile]
granuloma weight (cotton pellet granuloma; 100 mg/kg orally, water controls 115 mg): about 98 mg

CCC(C(=O)O)c1ccc(C(=O)c2ccc(Cl)cc2)n1C (stereo not drawn) [5-(p-Chlorobenzoyl)-α-ethyl-1-methylpyrrole-2-acetic acid]
inhibition in vivo at 25 mg/kg [1, 2]: 22%

CC(C(=O)O)c1ccc(C(=O)c2ccc(Cl)cc2)n1C (single isomer, unassigned; (+)) [(+)-5-(p-chlorobenzoyl)-α-methyl-1-methylpyrrole-2-acetic ac] [(+)-5-(p-chlorobenzoyl)-1,α-dimethylpyrrole-2-acetic acid]
% INHIBITION (Average 10 rats) ([1]; Table I): 62%

Reference: US3952012A, “Aroyl-substituted pyrroles” (McNeil Laboratories, Incorporated, priority 1974, dated 1976)
